# Structures can show the parent of a compound that is named as a salt.
# Key:
# [1] = test system: MV4-11 cells; test: MV4-11 Cell Cytotoxicity Assay; type: cell-based, human; settings: human, MV4-11 cells, CCK-8
# Excerpt: % Inhibition=100−(D−B)/(S−B)*100%.
# S: The absorbance of the maximum (cells with DMSO)
# B: The absorbance of the minimum (medium with DMSO)
# [2] = target: HSP90α (Homo sapiens, UniProt P07900); test: HSP90α Binding Fluorescent Polarization (FP) Assay; settings: competition with FITC-geldanamycin; read-out: HSP90 Binding Potency
# Description: HSP90α Binding Fluorescent Polarization (FP) Assay
# A master mix was prepared with assay buffer, BSA and FITC-geldanamycin. In a 96-well plate, a serial 3-fold dilution of each compound was prepared ranging from 40 μM down until 2.0 nM. Also in a 96-well plate, recombinant HSP90α protein was diluted to 28 μg/ml. Then, in a 384-well plate, 10 μl of master mix and 5 μl of compound dilution were added per well to duplicate wells and mixed by brief shaking. Then 5 μl of diluted HSP90α protein was added per well, mixed by brief shaking, incubated at 25° C. for 30, 60 and 120 min and fluorescence was measured on an EnVision Plate Reader. Background-subtracted mP values were calculated from EnVision raw data and a four-parameter “log[inhibitor] vs. response” curve was fitted using GraphPad Prism 7.0.
# [3] = target: T1, BRD4 (BD1+BD2) (Homo sapiens, UniProt O60885); settings: read-out: BRD4 Binding Potency
# T1 construct: 1.8 μg/ml recombinant BRD4 (BD1+BD2 domains) protein
# Description: A master mix was prepared with assay buffer, 1.8 μg/ml recombinant BRD4 (BD1+BD2 domains) protein, and 200-fold dilutions of Tb-labeled donor and dye-labeled acceptor. 40-fold dilutions of acetylated and non-acetylated ligands were prepared in 1×BRD TR-FRET assay buffer. Also, a serial 3-fold dilution of each compound was prepared ranging from 40 μM down until 2.0 nM. In a 384-well plate, 5 μl diluted ligand and 5 μl of compound dilution were added per well to duplicate wells and mixed by brief shaking. Then 10 μl of master mix was added per well, mixed by brief shaking, incubated at 25° C. for 2 hr and fluorescence was measured on an EnVision Plate Reader. The 665 nm/615 nm ratio was calculated from EnVision raw data. Data were normalized using whole-plate averages of “positive” and “negative” readings. A four-parameter “log[inhibitor] vs. response” curve was fitted using GraphPad Prism 7.0.
Structure (SMILES),IC50 at 72 h [1] [nM],IC50 [2] [nM],IC50 [3] [nM]
"CCNC(=O)c1noc(-c2cc(C(C)C)c(O)cc2O)c1-c1ccc(CN2CCN(CC3CCN(C(=O)C[C@@H]4N=C(c5ccc(Cl)cc5)c5c(sc(C)c5C)-n5c(C)nnc54)CC3)CC2)cc1 [Compound 126, (S)-4-(4-((4-((1-(2-(4-(4-chlorophenyl)-2,3,9-trimethyl-6H-thieno[3,2-f][1,2,4]triazolo[4,3-a][1,4]diazepin-6-yl)acetyl)piperidin-4-yl)methyl)piperazin-1-yl)methyl)phenyl)-5-(2,4-dihydroxy-5-isopropylphenyl)-N-ethylisoxazole-3-carboxamide hydrochloride]",< 100,100 to 1000,100 to 1000
"Cc1sc2c(c1C)C(c1ccc(Cl)cc1)=N[C@@H](CC(=O)N1CCC(CN3CCN(Cc4ccc(-n5c(S)nnc5-c5cc(C(C)C)c(O)cc5O)cc4)CC3)CC1)c1nnc(C)n1-2 [Compound 12, 2-((6S)-4-(4-chlorophenyl)-2,3,9-trimethyl-6H-thieno[3,2-f][1,2,4]triazolo[4,3-a][1,4]diazepin-6-yl)-1-(4-((4-(4-(3-(2,4-dihydroxy-5-isopropylphenyl)-5-mercapto-4H-1,2,4-triazol-4-yl)benzyl)piperazin-1-yl)methyl)piperidin-1-yl)ethanone, trifluoroacetic acid]",< 100,< 100,> 1000
"Cc1sc2c(c1C)C(c1ccc(Cl)cc1)=N[C@@H](CC(=O)N1CCC(CN3CCN(Cc4ccc(-n5c(C(N)=O)nnc5-c5cc(C(C)C)c(O)cc5O)cc4)CC3)CC1)c1nnc(C)n1-2 [Compound 109, (S)-4-(4-((4-((1-(2-(4-(4-chlorophenyl)-2,3,9-trimethyl-6H-thieno[3,2-f][1,2,4]triazolo[4,3-a][1,4]diazepin-6-yl)acetyl)piperidin-4-yl)methyl)piperazin-1-yl)methyl)phenyl)-5-(2,4-dihydroxy-5-isopropylphenyl)-4H-1,2,4-triazole-3-carboxamide, trifluoroacetic acid]",< 100,100 to 1000,< 100
"Cc1sc2c(c1C)C(c1ccc(Cl)cc1)=N[C@@H](CC(=O)NCC(=O)NCCOc1ccc(-n3c(O)nnc3-c3cc(C(C)C)c(O)cc3O)cc1)c1nnc(C)n1-2 [Compound 54, (S)-2-(4-(4-chlorophenyl)-2,3,9-trimethyl-6H-thieno[3,2-f][1,2,4]triazolo[4,3-a][1,4]diazepin-6-yl)-N-(2-((2-(4-(3-(2,4-dihydroxy-5-isopropylphenyl)-5-hydroxy-4H-1,2,4-triazol-4-yl)phenoxy)ethyl)amino)-2-oxoethyl)acetamide]",100 to 1000,< 100,100 to 1000
"Cc1sc2c(c1C)C(c1ccc(Cl)cc1)=N[C@@H](CC(=O)N1CCC(CCN3CCC(Cc4ccc(-n5c(O)nnc5-c5cc(C(C)C)c(O)cc5O)cc4)CC3)CC1)c1nnc(C)n1-2 [Compound 80, (S)-2-(4-(4-chlorophenyl)-2,3,9-trimethyl-6H-thieno[3,2-f][1,2,4]triazolo[4,3-a][1,4]diazepin-6-yl)-1-(4-(2-(4-(4-(3-(2,4-dihydroxy-5-isopropylphenyl)-5-hydroxy-4H-1,2,4-triazol-4-yl)benzyl)piperidin-1-yl)ethyl)piperidin-1-yl)ethan-1-one, trifluoroacetic acid]",< 100,100 to 1000,< 100
"Cc1sc2c(c1C)C(c1ccc(Cl)cc1)=N[C@@H](CC(=O)NCc1ccc(-n3c(S)nnc3-c3cc(C(C)C)c(O)cc3O)cc1)c1nnc(C)n1-2 [Compound 28, (S)-2-(4-(4-chlorophenyl)-2,3,9-trimethyl-6H-thieno[3,2-f][1,2,4]triazolo[4,3-a][1,4]diazepin-6-yl)-N-(4-(3-(2,4-dihydroxy-5-isopropylphenyl)-5-mercapto-4H-1,2,4-triazol-4-yl)benzyl)acetamide]",100 to 1000,100 to 1000,100 to 1000
"Cc1sc2c(c1C)C(c1ccc(Cl)cc1)=N[C@@H](CC(=O)N1CCN(Cc3ccc4c(c3)CN(C(=O)c3ccc(O)cc3O)C4)CC1)c1nnc(C)n1-2 [Compound 143, (S)-2-(4-(4-chlorophenyl)-2,3,9-trimethyl-6H-thieno[3,2-f][1,2,4]triazolo[4,3-a][1,4]diazepin-6-yl)-1-(4-((2-(2,4-dihydroxybenzoyl)isoindolin-5-yl)methyl)piperazin-1-yl)ethan-1-one]",> 1000,100 to 1000,> 1000
"CCN(CC)CCNC(=O)c1nnc(-c2ccc(O)cc2O)n1-c1ccc(CN2CCN(CC3CCN(C(=O)C[C@@H]4N=C(c5ccc(Cl)cc5)c5c(sc(C)c5C)-n5c(C)nnc54)CC3)CC2)cc1 [Compound 111, (S)-4-(4-((4-((1-(2-(4-(4-chlorophenyl)-2,3,9-trimethyl-6H-thieno[3,2-f][1,2,4]triazolo[4,3-a][1,4]diazepin-6-yl)acetyl)piperidin-4-yl)methyl)piperazin-1-yl)methyl)phenyl)-N-(2-(diethylamino)ethyl)-5-(2,4-dihydroxyphenyl)-4H-1,2,4-triazole-3-carboxamide, trifluoroacetic acid]",< 100,100 to 1000,< 100
"Cc1sc2c(c1C)C(c1ccc(Cl)cc1)=N[C@@H](CC(=O)NCC(=O)NCC1CN(C(=O)C3CCN(Cc4ccc(-n5c(O)nnc5-c5cc(C(C)C)c(O)cc5O)cc4)CC3)C1)c1nnc(C)n1-2 [Compound 60, 2-((6S)-4-(4-chlorophenyl)-2,3,9-trimethyl-6H-thieno[3,2-f][1,2,4]triazolo[4,3-a][1,4]diazepin-6-yl)-N-(2-(((1-(1-(4-(3-(2,4-dihydroxy-5-isopropylphenyl)-5-hydroxy-4H-1,2,4-triazol-4-yl)benzyl)piperidine-4-carbonyl)azetidin-3-yl)methyl)amino)-2-oxoethyl)acetamide, trifluoroacetic acid]",< 100,100 to 1000,100 to 1000
"Cc1sc2c(c1C)C(c1ccc(Cl)cc1)=N[C@@H](CC(=O)N1CCC(CN3CCN(Cc4ccc(-n5c(O)nnc5-c5cc(C(C)C)c(O)cc5O)cc4F)CC3)CC1)c1nnc(C)n1-2 [Compound 17, (S)-2-(4-(4-chlorophenyl)-2,3,9-trimethyl-6H-thieno[3,2-f][1,2,4]triazolo[4,3-a][1,4]diazepin-6-yl)-1-(4-((4-(4-(3-(2,4-dihydroxy-5-isopropylphenyl)-5-hydroxy-4H-1,2,4-triazol-4-yl)-2-fluorobenzyl)piperazin-1-yl)methyl)piperidin-1-yl)ethan-1-one, trifluoroacetic acid]",< 100,100 to 1000,> 1000
"CCc1cc(-c2nnc(C(=O)NCC(F)(F)F)n2-c2ccc(CC3CCN(CC4CCN(C(=O)C[C@@H]5N=C(c6ccc(Cl)cc6)c6c(sc(C)c6C)-n6c(C)nnc65)CC4)CC3)cc2)c(O)cc1O [Compound 86, (S)-4-(4-((1-((1-(2-(4-(4-chlorophenyl)-2,3,9-trimethyl-6H-thieno[3,2-f][1,2,4]triazolo[4,3-a][1,4]diazepin-6-yl)acetyl)piperidin-4-yl)methyl)piperidin-4-yl)methyl)phenyl)-5-(5-ethyl-2,4-dihydroxyphenyl)-N-(2,2,2-trifluoroethyl)-4H-1,2,4-triazole-3-carboxamide, trifluoroacetic acid]",< 100,100 to 1000,100 to 1000

# — patent US20220168427A1 (Ranok Therapeutics (Hangzhou) Co. Ltd., priority 2019, published 2022)
